# Reference: ChEMBL document CHEMBL1201862, “PubChem BioAssay data set” (2004)
# The source made the active and inactive calls.
# Tests used:
# [1] = biological target: Glyceraldehyde-3-phosphate dehydrogenase (Homo sapiens, UniProt P04406)
# [2] = biological target: T1, Alkaline phosphatase, tissue-nonspecific isozyme (Homo sapiens, UniProt P05186); test: potency against alkaline phosphatase TNAP – biochemical, luminescent, dose response, SAR follow-up (AID 1056)
# T1 sequence (P05186 whole entry): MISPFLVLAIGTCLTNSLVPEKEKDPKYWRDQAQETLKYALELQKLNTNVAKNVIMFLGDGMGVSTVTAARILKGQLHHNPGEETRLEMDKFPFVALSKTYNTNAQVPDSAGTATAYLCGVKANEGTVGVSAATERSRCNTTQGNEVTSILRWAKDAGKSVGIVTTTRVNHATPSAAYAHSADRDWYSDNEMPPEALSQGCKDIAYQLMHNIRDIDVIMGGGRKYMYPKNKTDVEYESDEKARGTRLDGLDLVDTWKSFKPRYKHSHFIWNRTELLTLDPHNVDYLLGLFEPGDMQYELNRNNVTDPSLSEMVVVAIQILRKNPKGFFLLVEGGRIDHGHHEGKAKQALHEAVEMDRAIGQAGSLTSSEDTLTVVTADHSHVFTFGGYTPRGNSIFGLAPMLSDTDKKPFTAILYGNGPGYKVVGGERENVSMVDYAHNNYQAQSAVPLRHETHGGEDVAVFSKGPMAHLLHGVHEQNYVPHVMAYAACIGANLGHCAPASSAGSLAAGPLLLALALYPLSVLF
# Streptococcus = test: GAS UMAA2166 growth inhibition – luminescence, BacTiterGlo, counter-screen for streptokinase expression inhibitor project, dose response (AID 1915); format: functional, organism-based;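 further: potency for reduction of bacterial viability or growth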
# [3] = system: Streptococcus sp. 'group A'; test: Streptococcus pyogenes SK(-)GAS viability under kanamycin – luminescence, BacTiterGlo, confirmation, counter-screen for streptokinase expression inhibitor project, dose response (AID 1900); format: functional, organism-based
# [4] = viability loss in THP-1 monocytes – THP-1 cells, cytotoxicity control for Vif-APOBEC3G degradation inhibitor project, dose response (AID 1117359); format: functional; settings: THP-1
# Cytochrome P450 3A4 = Cytochrome P450 3A4 (Homo sapiens, UniProt P08684);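 further: CYP3A4 tested as one member of a cytochrome P450 panel screen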
# Sequence of Cytochrome P450 3A4 (P08684 whole entry): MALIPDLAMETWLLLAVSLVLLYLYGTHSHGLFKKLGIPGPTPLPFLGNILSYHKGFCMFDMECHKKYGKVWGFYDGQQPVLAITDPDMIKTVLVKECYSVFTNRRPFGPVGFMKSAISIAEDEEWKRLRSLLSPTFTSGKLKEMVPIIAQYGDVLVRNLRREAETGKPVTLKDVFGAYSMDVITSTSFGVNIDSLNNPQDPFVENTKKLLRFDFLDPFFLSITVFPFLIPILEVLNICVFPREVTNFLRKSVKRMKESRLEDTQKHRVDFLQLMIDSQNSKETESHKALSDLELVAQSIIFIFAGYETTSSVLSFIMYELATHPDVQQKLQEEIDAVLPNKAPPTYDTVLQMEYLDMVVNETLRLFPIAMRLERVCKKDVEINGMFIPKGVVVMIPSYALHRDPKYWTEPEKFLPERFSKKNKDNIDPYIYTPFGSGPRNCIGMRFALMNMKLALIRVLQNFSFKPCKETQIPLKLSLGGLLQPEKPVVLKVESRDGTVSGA
# Cytochrome P450 1A2 = biological target: T2, Cytochrome P450 1A2 (Homo sapiens, UniProt P05177);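 further: PubChem cytochrome P450 panel assay, CYP1A2 panel member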
# T2 sequence (P05177 whole entry): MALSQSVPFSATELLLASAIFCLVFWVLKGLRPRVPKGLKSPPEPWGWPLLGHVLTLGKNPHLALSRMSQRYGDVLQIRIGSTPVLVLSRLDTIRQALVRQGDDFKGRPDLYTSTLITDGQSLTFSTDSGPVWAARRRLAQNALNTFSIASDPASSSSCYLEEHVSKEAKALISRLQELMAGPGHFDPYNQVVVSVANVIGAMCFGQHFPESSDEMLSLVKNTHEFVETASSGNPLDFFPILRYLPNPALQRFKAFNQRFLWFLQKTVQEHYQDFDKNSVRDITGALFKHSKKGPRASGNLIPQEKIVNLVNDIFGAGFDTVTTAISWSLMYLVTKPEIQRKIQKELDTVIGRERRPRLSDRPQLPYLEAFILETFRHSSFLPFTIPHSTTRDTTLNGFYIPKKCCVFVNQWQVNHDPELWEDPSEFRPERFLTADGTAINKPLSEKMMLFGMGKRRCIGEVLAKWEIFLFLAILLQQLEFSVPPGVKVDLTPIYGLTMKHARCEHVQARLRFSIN
# [5] = biological target: T3, Heat shock factor protein 1 (Mus musculus, UniProt P38532); test: decrease of HSF1-responsive luciferase luminescence – cell-based, NIH3T3, dose retest, confirmation (AID 2382); format: functional;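 further: NIH3T3 fibroblasts with HSF1-driven luciferase reporter stressed by proteasome inhibitor MG132; luminescence from HSF1-driven luciferase expression after 8 hours of MG132 stress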
# T3 sequence (P38532 whole entry): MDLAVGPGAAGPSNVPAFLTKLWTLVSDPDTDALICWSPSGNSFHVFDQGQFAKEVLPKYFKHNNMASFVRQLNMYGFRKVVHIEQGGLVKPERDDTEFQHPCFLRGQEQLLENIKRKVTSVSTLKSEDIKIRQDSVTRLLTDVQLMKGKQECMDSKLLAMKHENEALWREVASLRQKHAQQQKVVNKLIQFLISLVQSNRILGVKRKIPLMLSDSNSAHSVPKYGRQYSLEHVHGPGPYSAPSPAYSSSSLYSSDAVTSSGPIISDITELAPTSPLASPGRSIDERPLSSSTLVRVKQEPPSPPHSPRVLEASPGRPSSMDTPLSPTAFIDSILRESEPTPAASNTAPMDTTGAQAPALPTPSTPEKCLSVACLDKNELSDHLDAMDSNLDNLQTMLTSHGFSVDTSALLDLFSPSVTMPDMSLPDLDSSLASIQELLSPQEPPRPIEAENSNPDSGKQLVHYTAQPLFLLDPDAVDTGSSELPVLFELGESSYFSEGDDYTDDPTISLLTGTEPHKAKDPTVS
# Cytochrome P450 2D6 = Cytochrome P450 2D6 (Homo sapiens, UniProt P10635);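 further: CYP2D6 member of a cytochrome P450 panel assay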
# [6] = biological target: T4, Carboxy-terminal domain RNA polymerase II polypeptide A small phosphatase 1 (Homo sapiens, UniProt Q9GZU7); test: CTDSP1 inhibitors, concentration-response, biochemical, absorbance readout, ultra-high-throughput screen actives (AID 540297); format: functional
# T4 sequence (Q9GZU7 whole entry): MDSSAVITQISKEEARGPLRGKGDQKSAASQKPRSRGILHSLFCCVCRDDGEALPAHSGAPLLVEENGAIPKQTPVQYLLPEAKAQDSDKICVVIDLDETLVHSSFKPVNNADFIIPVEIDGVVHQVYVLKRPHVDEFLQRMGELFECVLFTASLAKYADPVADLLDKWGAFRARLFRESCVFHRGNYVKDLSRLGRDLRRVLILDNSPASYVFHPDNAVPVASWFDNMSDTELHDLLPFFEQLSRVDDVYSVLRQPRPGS
# [7] = biological target: Induced myeloid leukemia cell differentiation protein Mcl-1 (Homo sapiens, UniProt Q07820); format: functional
# Sequence of Induced myeloid leukemia cell differentiation protein Mcl-1 (Q07820 whole entry): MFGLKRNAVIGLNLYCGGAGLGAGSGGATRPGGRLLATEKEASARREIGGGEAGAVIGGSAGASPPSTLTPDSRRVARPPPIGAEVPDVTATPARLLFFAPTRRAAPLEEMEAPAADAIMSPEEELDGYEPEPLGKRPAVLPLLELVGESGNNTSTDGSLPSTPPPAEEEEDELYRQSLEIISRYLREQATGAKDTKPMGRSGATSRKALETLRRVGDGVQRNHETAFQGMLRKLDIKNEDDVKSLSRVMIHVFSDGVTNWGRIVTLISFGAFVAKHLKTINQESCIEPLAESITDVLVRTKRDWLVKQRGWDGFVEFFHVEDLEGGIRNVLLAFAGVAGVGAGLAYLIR
# [8] = blockers of bursicon-stimulated LGR2 cAMP reporter – cell-based, HEK293, CRE-luciferase reporter, cherry pick, set 2, dose response (AID 743343); format: functional;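 further: transfected cells were stimulated with diluted bursicon conditioned medium after compound addition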
# [9] = biological target: T5, Short transient receptor potential channel 4 (Mus musculus, UniProt Q9QUQ5); test: calcium entry via TRPC4 opening agents – cell-based, HEK293 TRPC4/mu-opioid, Fluo-4 calcium, dose response (AID 434937); format: functional
# T5 sequence (Q9QUQ5 whole entry): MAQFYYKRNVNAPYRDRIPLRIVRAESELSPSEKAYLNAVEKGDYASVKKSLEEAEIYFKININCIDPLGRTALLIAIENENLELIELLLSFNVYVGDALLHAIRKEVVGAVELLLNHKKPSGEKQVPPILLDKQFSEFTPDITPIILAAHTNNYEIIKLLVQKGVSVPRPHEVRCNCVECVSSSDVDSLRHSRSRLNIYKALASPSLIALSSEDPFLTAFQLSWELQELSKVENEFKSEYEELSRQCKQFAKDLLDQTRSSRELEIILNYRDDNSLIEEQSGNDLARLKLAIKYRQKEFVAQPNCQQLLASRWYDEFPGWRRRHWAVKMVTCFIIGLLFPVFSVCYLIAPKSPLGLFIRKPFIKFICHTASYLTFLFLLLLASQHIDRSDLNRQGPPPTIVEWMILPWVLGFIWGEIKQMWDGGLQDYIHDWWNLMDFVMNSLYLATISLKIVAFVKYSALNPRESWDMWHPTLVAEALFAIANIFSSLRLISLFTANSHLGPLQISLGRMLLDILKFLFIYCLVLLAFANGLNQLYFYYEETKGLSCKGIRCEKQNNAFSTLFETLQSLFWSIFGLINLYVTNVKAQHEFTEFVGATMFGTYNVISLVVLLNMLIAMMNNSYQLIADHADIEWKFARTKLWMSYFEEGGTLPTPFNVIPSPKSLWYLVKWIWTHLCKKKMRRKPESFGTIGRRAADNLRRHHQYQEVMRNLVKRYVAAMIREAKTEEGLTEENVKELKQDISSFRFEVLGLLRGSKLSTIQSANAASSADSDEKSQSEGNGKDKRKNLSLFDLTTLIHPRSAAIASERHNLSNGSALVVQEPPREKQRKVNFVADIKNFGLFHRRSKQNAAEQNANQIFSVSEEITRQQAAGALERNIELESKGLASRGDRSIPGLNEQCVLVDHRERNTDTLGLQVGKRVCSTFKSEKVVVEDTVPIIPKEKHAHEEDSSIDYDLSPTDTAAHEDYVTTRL
# [10] = biological target: T6, High affinity choline transporter 1 (Homo sapiens, UniProt Q9GZV3); test: human choline transporter blockers, potency – cell-based, 5-point CRC, membrane potential dye, dose response (AID 504840); format: functional
# T6 sequence (Q9GZV3 whole entry): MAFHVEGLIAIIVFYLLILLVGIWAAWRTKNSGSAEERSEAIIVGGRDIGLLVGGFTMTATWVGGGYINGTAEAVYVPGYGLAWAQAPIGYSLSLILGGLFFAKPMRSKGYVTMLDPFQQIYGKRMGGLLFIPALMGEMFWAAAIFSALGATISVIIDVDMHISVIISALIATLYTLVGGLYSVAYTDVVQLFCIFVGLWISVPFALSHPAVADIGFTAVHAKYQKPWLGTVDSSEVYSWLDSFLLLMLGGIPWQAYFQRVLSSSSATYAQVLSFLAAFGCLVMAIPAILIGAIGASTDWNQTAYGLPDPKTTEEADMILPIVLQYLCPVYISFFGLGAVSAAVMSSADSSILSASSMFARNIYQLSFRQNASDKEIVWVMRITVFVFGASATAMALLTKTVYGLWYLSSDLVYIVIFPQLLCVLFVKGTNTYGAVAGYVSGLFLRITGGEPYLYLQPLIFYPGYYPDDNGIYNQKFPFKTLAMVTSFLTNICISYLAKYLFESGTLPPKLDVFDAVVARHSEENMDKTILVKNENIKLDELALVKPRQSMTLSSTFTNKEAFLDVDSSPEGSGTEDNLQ
# [11] = biological target: T7, Voltage-gated N-type calcium channel alpha-1B subunit/Amyloid beta A4 precursor protein-binding family A member 1 (Homo sapiens, UniProt Q00975+Q02410); format: protein assay
# T7 sequence (Q00975 whole entry): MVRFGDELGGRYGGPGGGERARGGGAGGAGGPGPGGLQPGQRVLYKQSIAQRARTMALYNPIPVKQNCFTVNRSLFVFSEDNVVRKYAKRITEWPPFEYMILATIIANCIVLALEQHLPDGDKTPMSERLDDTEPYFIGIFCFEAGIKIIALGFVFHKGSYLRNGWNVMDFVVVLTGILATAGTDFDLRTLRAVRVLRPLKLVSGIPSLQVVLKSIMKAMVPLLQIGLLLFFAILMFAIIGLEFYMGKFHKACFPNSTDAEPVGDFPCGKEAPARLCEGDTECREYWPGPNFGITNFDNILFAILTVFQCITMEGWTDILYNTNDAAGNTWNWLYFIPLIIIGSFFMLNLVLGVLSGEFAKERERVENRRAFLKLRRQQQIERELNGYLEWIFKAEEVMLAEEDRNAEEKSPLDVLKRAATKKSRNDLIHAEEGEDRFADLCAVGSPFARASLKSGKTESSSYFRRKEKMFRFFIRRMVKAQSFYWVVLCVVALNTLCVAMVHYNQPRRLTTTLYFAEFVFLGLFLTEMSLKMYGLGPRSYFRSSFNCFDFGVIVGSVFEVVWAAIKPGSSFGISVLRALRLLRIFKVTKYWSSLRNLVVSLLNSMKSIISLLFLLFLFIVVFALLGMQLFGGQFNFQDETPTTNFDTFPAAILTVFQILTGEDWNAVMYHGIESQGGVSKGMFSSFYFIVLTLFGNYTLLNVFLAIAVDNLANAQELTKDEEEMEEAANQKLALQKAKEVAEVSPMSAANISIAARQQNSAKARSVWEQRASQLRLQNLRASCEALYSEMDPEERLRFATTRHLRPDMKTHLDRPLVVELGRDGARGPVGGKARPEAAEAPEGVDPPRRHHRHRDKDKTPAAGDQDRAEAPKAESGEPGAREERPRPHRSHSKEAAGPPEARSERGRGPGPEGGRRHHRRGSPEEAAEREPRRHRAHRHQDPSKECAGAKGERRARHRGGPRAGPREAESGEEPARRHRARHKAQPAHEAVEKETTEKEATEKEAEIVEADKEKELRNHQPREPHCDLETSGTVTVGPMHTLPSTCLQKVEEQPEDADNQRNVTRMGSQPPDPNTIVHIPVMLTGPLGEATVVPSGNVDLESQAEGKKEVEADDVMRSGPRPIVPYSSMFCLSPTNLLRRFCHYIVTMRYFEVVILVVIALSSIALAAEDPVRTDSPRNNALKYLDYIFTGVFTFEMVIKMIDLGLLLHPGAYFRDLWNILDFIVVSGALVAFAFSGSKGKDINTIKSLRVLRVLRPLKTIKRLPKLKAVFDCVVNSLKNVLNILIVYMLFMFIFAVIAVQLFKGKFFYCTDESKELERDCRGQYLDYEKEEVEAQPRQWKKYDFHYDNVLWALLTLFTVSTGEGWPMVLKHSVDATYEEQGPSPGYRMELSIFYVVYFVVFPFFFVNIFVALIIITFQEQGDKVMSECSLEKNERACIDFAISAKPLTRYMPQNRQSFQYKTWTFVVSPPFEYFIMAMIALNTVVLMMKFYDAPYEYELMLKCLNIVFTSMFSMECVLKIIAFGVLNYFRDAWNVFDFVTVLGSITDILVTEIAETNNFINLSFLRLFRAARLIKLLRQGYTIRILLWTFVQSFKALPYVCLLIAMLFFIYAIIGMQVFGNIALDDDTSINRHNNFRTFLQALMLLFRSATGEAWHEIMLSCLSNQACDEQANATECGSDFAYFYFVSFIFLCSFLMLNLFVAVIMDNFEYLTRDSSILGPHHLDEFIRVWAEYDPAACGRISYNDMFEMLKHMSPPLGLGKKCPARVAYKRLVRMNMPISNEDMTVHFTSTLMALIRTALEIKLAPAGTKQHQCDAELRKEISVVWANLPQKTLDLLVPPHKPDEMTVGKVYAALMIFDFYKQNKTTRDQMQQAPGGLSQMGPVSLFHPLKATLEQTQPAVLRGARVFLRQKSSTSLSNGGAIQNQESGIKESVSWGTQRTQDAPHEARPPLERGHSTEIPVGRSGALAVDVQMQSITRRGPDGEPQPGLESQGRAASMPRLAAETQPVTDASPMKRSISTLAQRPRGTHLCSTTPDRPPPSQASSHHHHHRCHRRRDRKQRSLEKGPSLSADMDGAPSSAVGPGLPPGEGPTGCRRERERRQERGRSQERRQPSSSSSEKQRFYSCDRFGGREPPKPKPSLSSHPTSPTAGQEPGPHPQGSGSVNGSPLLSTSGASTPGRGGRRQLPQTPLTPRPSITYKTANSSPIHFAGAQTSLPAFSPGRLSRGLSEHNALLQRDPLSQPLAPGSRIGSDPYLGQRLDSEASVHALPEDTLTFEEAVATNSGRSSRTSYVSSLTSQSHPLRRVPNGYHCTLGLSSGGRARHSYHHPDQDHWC
# T7 sequence (Q02410 whole entry): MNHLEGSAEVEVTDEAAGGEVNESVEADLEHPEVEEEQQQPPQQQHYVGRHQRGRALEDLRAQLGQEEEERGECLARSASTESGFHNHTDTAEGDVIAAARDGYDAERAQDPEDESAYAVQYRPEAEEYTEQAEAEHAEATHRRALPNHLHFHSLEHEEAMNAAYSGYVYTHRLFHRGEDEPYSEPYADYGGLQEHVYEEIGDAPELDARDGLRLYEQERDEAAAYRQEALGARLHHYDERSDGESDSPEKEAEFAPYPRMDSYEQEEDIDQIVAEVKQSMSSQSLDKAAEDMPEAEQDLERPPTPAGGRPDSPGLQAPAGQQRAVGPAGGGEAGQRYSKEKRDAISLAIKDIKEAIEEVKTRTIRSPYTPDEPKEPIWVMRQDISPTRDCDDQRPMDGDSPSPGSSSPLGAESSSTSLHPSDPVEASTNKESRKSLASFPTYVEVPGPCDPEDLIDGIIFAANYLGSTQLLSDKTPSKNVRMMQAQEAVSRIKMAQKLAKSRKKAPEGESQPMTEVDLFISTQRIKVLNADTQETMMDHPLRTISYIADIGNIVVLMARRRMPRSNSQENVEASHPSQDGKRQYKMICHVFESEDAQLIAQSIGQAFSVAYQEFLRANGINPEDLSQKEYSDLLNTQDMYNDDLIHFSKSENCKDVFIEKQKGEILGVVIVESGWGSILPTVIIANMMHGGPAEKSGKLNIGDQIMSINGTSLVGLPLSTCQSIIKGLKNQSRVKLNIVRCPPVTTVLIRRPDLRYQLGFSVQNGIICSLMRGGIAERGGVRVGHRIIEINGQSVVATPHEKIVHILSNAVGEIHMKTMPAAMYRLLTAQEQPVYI
# [12] = biological target: T7, Voltage-gated N-type calcium channel alpha-1B subunit/Amyloid beta A4 precursor protein-binding family A member 1; format: protein assay; remark: listed apart in the source
# Paired box protein Pax-8 = Paired box protein Pax-8 (Homo sapiens, UniProt Q06710); test: PAX8 transcriptional activity inhibition in RMG-I – RMG-I cells, luciferase, cherry-pick, dose response (AID 687027); format: functional, cell-based;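 further: luciferase reporter driven by Pax8 target thyroperoxidase promoter measured by SteadyGlo luminescence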
# Sequence of Paired box protein Pax-8 (Q06710 whole entry): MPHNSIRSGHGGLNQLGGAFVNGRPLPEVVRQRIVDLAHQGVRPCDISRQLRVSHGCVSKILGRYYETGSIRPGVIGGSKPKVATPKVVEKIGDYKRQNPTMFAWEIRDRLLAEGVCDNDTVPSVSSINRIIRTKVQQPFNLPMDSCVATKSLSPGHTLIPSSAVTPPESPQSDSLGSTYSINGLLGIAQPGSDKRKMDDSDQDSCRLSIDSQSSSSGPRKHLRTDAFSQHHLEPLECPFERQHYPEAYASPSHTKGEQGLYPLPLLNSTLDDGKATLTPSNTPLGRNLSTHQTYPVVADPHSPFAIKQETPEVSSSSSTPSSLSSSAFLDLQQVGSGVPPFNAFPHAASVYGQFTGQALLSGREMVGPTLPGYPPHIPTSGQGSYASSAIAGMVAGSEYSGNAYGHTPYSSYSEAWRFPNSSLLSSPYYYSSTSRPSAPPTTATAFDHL
# [13] = OVCAR-3 cell viability loss – plate reader, dry powder samples, PAX8 inhibitor project, dose response (AID 743044); format: functional, cell-based
# [14] = OVCAR8 cell viability loss – plate reader, dry powder samples, PAX8 project, dose response (AID 743197); format: functional, cell-based; settings: OVCAR-8
# Sequence of Glyceraldehyde-3-phosphate dehydrogenase (P04406 whole entry): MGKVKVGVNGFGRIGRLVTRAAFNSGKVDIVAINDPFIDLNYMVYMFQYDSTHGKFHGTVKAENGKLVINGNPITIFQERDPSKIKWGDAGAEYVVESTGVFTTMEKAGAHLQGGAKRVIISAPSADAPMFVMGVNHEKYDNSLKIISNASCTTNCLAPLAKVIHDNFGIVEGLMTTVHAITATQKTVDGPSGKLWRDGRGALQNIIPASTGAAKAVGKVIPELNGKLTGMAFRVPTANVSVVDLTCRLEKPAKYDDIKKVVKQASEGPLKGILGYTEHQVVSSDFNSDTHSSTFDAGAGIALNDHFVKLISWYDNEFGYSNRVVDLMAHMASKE
compound,measurement,setting,value
O=S(=O)(Nc1cccnc1)c1ccc(Br)cc1OC(F)(F)F,IC50,[1],> 100 µM (not active)
same,IC50,[2],10.9 µM (active)
CCCN=C1C(=O)C2=C(C(O)=C1C)N1CC3NC3[C@@]1(OC)C2COC(N)=O (some centres undefined),EC50,Streptococcus,0.153 µM (active)
same,EC50,[3],< 0.06 µM (active)
same,CC50,[4],1.52 µM (active)
Cc1ccccc1OCC(=O)Nc1ccc(N2CCN(C(=O)C(C)C)CC2)c(Cl)c1,AC50,Cytochrome P450 3A4,inconclusive
same,AC50,Cytochrome P450 1A2,15.8 µM (inconclusive)
CCCC[C@@H]1CN=C(S)N1CCc1cccc2ccccc12,CC50,[4],> 40 µM (active)
NNC(=O)c1ccc(N2CCc3ccccc32)c([N+](=O)[O-])c1,EC50,[5],> 195 µM (not active)
same,CC50,[4],> 40 µM (active)
c1ccc(-c2noc(CSc3nnnn3C3CCCCC3)n2)cc1,AC50,Cytochrome P450 2D6,17.8 µM (inconclusive)
same,AC50,Cytochrome P450 3A4,inconclusive
CCN(CC)S(=O)(=O)c1ccc(C(=O)NC2=C(C(=O)OC)SCC2)cc1,AC50,Cytochrome P450 3A4,inconclusive
Cc1ccc(NC(=O)CN2C(=O)N/C(=C/c3cc(C)n(-c4ccc(C(=O)O)cc4)c3C)C2=O)cc1,IC50,[6],7.93 µM (active)
same,IC50,[7],4.55 µM (active)
Cn1c(SCC(=O)Nc2nncs2)nnc1C1CC1,IC50,[6],4.69 µM (active)
O=S1(=O)CCOC[C@H](CC2CCCCC2)N1Cc1ccccc1F,AC50,[8],53.7 µM (active)
Nc1cc(C(=O)OCC(=O)c2ccc(CC(=O)N3CCOCC3)s2)ccc1Cl,IC50,[6],5.84 µM (active)
COc1ccccc1C(=O)NNC(=S)NC(=O)c1sc2ccccc2c1Cl,EC50,Streptococcus,0.878 µM (active)
same,EC50,[9],5.31 µM (active)
same,EC50,[3],0.072 µM (active)
same,IC50,[10],14.5 µM (active)
O=C1C2CCCCC2C(=O)N1c1nccs1 (centres undefined),IC50,[1],> 10 µM (inconclusive)
same,IC50,[2],> 10 µM (inactive)
CC(=O)NC1=NC(=O)/C(=C/c2cn(C(C)=O)nc2-c2ccccc2)S1,IC50,[11],> 50 µM (inactive)
same,IC50,[12],> 56.8 µM (not active)
CCOc1cc(C)c(C)cc1S(=O)(=O)Nc1cccnc1,IC50,[1],> 100 µM (not active)
same,IC50,[2],1.7 µM (active)
C[C@@H]1CN([C@H](C)CO)S(=O)(=O)c2ccc(-c3ccc(C#N)cc3)cc2O[C@@H]1CN(C)Cc1cccc(F)c1,AC50,Paired box protein Pax-8,3.4 µM (active)
same,AC50,[13],29.1 µM (active)
same,AC50,[14],25.8 µM (active)
CCCN1[C@H](C(=O)N2CCOCC2)[C@@H](CO)[C@@H]2Cn3c(ccc(/C=C/c4ccccc4)c3=O)[C@@H]21,AC50,Paired box protein Pax-8,48.2 µM (active)
same,AC50,[14],> 70 µM (inactive)
COc1ccc(NS(=O)(=O)c2cccc(C(=O)N/N=C/c3c(F)c(F)c(F)c(F)c3F)c2)cc1,IC50,[6],10.7 µM (active)
